US8114864B2, “Macrolide antibiotics and their use for medical purposes” (Helmholtz-Zentrum Fuer Infektionsforschung, priority 2006, dated 2012)
≈ marks a conversion by molar mass, not a printed value. Where two headings read alike, the source gives them in different places.

How the values were obtained:
[1] = system: Micrococcus luteus, Mycobacterium phlei and M. chitae; experiment: MIC in liquid culture
Micrococcus luteus [2] = experiment: Inhibition of oxygen demand/consumption of Micrococcus luteus in liquid culture; type: cell-based; settings: initial studies
[3] = system: NADH oxidation of crude cytoplasmic membrane fractions; experiment: Inhibition of NADH oxidation of crude cytoplasmic membrane fractions; type: biochemical; settings: initial studies using Micrococcus luteus
[4] = system: Mycobacterium tuberculosis test strain H375RV; experiment: Growth inhibition of Mycobacterium tuberculosis in liquid culture; type: cell-based; settings: for antibiotic activity against Mycobacterium tuberculosis: clinical isolates and reference strains
Description: Using the standard Mycobacterium tuberculosis test strain H375RV, it could be shown that thuggacin A inhibited growth at or below 8 μg/mL in liquid culture.
For tests of the biological activity, preferably aqueous compositions of the thuggacins according to the present invention were used separately in an aqueous composition comprising 10 mM acetic acid for stabilisation.

Corynebacterium fascians = experiment: Agar diffusion test; type: cell-based; settings: Rhodococcoides fascians, read-out: Diameter of inhibition zone
Description: (§1) In an agar diffusion test using 10 μg of the compound per disc, the following inhibition was found: […]

Micrococcus luteus [5] = experiment: Agar diffusion test; type: cell-based; settings: read-out: Diameter of inhibition zone
Description: as §1

Mycobacterium phlei = experiment: Agar diffusion test; type: cell-based; settings: Mycolicibacterium phlei, read-out: Diameter of inhibition zone
Description: as §1

[6] = Stability / rearrangement of thuggacins in protic solvent; type: physicochemical; settings: for stability in aqueous solution: optionally comprising a C1-C2 alcohol
Description: Starting from 8 mg/mL thuggacin A, an equilibrium of thuggacin A, thuggacin-B and thuggacin C could be found after approximately 96 hours. In general, the reaction time for reaching the equilibrium can vary over a broad range, e.g. from 1 to 20 days. Re-crystallized thuggacin of high purity is nearly stable, i.e. undergo rearrangement only very slowly. Thuggacin A having a lower purity will undergo rearrangement to thuggacin B and C with increased reaction rates. Similar stabilities have been observed for the rearrangement reaction of thuggacin cmc-A to thuggacin cmc-B and cmc-C.

[7] = system: mouse fibroblast cells (L929); experiment: Sensitivity of cultivated mouse fibroblast cells

C/C=C(C)/C=C(\C)CC(C)C(O)C1OC(=O)/C(C)=C/c2csc(n2)C(CO)C(O)CC(O)/C=C/C=C\CC1O (centres unmarked) [thuggacin cmc-B]
relative effectiveness in liquid culture MIC experiments [1]: most effective

C/C=C(C)/C=C(\C)C(O)C(C)C(O)C(O)C1C/C=C\C=C\C(O)CC(O)C(C)c2nc(cs2)/C=C(\CCCCCC)C(=O)O1 (centres unmarked) [thuggacin A]
inhibition of oxygen consumption (Micrococcus luteus [2]): almost completely
oxidation of NADH and of reduced cytochrome c [3]: reduced
antibiotic activity against Mycobacterium tuberculosis [4]: antibiotic activity
concentration inhibiting growth ([4]; liquid culture, strain H375RV): ≤ 8 µg/mL
zone of inhibition at 10 µg/disc (Corynebacterium fascians; 10 μg of compound per disc, Corynebacterium fascians, figures in parentheses indicate an incomplete inhibition): 30 mm
zone of inhibition at 10 µg/disc (Micrococcus luteus [5]; 10 μg of compound per disc): 29 mm
zone of inhibition at 10 µg/disc (Mycobacterium phlei; 10 μg of compound per disc, Mycobacterium phlei): 20 mm
stability in aqueous solution [6]: not stable
time to equilibrium of thuggacin A, thuggacin B and thuggacin C ([6]; starting from 8 mg/mL thuggacin A, aqueous composition optionally including methanol (FIG. 1: methanol)): approximately 96 hours
relative effectiveness in liquid culture MIC experiments [1]: most effective
IC50 [7]: 4 µg/mL (≈ 6.33 µM)

C/C=C(C)/C=C(\C)CC(C)C(O)C(O)C1C/C=C\C=C\C(O)CC(O)C(CO)c2nc(cs2)/C=C(\C)C(=O)O1 (centres unmarked) [thuggacin cmc-A]
zone of inhibition at 10 µg/disc (Corynebacterium fascians): 47 mm
zone of inhibition at 10 µg/disc (Micrococcus luteus [5]): 46 mm
zone of inhibition at 10 µg/disc (Mycobacterium phlei): 24 mm
relative effectiveness in liquid culture MIC experiments [1]: most effective

C/C=C(C)/C=C(\C)C(O)C(C)C1OC(=O)/C(CCCCCC)=C/c2csc(n2)C(C)C(O)CC(O)/C=C/C=C\CC(O)C1O (centres unmarked) [thuggacin C]
antibiotic activity against Mycobacterium tuberculosis [4]: antibiotic activity
relative effectiveness in liquid culture MIC experiments [1]: less effective against certain bacteria

C/C=C(C)/C=C(\C)C(O)C(C)C(O)C1OC(=O)/C(CCCCCC)=C/c2csc(n2)C(C)C(O)CC(O)/C=C/C=C\CC1O (centres unmarked) [thuggacin B]
antibiotic activity against Mycobacterium tuberculosis [4]: antibiotic activity
stability in aqueous solution [6]: not stable
relative effectiveness in liquid culture MIC experiments [1]: most effective
IC50 [7]: 8 µg/mL (≈ 12.7 µM)

C/C=C(C)/C=C(\C)C(O)C(C)C(O)C(O)C1C/C=C(C)\C=C\C(O)CC(O)C(C)c2nc(cs2)/C=C(\CCCCCC)C(=O)O1 (centres unmarked) [13-methyl thuggacin A]
antibiotic activity against Mycobacterium tuberculosis [4]: antibiotic activity

C/C=C(C)/C=C(\C)CC(C)C1OC(=O)/C(C)=C/c2csc(n2)C(CO)C(O)CC(O)/C=C/C=C\CC(O)C1O (centres unmarked) [thuggacin cmc-C]
zone of inhibition at 10 µg/disc (Corynebacterium fascians): 44 mm
zone of inhibition at 10 µg/disc (Micrococcus luteus [5]): 44 mm
zone of inhibition at 10 µg/disc (Mycobacterium phlei): 22 mm
